Values of other authors as cited in US20260014155A1, “TICAGRELOR SOLID DISPERSION, METHOD FOR PREPARING SAME, AND USE THEREOF” (WISDOM PHARMACEUTICAL CO., LTD., priority 2022, published 2026).

Conditions: low solubility and low permeability

biopharmaceutical classification: BCS class 4
SMILES: CCCSc1nc(N[C@@H]2C[C@H]2c2ccc(F)c(F)c2)c2nnn([C@@H]3C[C@H](OCCO)[C@@H](O)[C@H]3O)c2n1 [ticagrelor, (1S,2S,3R,5S)-3-[7-{[(1R,2S)-2-(3,4-difluorophenyl)cyclopropyl]amino}-5-(propylthio)-3H-[1,2,3]-triazolo[4,5-d]pyrimidin-3-yl]-5-(2-hydroxyethoxy)cyclopentane-1,2-diol]
